Literature values as cited in patent publication US20220211620A1, “Pain Relieving Spray” (Animal Ethics Pty Ltd, priority 2019, published 2022).

Conditions: up to about; depending on the method of administration

In the case of `CCCCN1CCCCC1C(=O)Nc1c(C)cccc1C` (stereo not shown) [bupivacaine], the “duration of anaesthesia typically provided” value is listed as 6 to 12 h.
